Holding throughout (assay type): functional, cell-based
One experiment concerns MCF7. The experiment is described as follows: Cytotoxicity against human MCF7 cells after 72 hrs by WST-8 assay. The following applies: MCF7, 72 h. In general terms: Tetrazolium dyes change colour on reduction, which living cells bring about.
The subject of a further experiment is SK-BR-3. The experiment is described as follows: Cytotoxicity against human SK-BR-3 cells after 72 hrs by WST-8 assay. The following applies: SK-BR-3, 72 h.
The next experiment relates to PC-3. In words: Cytotoxicity against human PC3 cells after 72 hrs by WST-8 assay. The following applies: PC-3, 72 h.
A short description of experiment [1]: Cytotoxicity against human COLO320DM cells after 72 hrs by WST-8 assay. The following applies: COLO 320DM.

As usually defined, the IC50 is the midpoint of a concentration-inhibition curve. Low values mean greater potency in that assay, high ones weaker potency in that assay.

SMILES strings stand for the structures.

With `COc1cc(O)c2c(c1CC=C(C)C)OC(c1ccccc1)CC2=O` (configuration not stated), the 50% inhibitory concentration (IC50) amounted to 30.3 µM with MCF7, 34.4 µM in the experiment with SK-BR-3, 35.3 µM in the experiment with PC-3 and 24.2 µM in experiment [1].
Regarding `COc1cc2c(c3c1C(C)(C)C(C)O3)C(=O)CC(c1ccccc1)O2` (configuration not stated), the half-maximal inhibitory concentration (IC50) with MCF7 is 29.5 µM; in the experiment on SK-BR-3 it was 14 µM; in the experiment on PC-3 it was 10.4 µM; in experiment [1], 18.6 µM.
`COc1cc(O)c2c(c1)O[C@H](c1ccccc1)CC2=O` [PINOSTROBIN]: the concentration for half-maximal inhibition (IC50) is 84.9 µM in the experiment on MCF7, 94.3 µM in the experiment on SK-BR-3, 86.7 µM in the experiment with PC-3 and more than 100 µM in experiment [1].

The values are drawn from ChEMBL document CHEMBL1156944, “Efficient microwave-assisted prenylation of pinostrobin and biological evaluation of its derivatives as antitumor agents” (Bioorg Med Chem Lett, 2010).
